In article PMC5719074, “Electrostatic Map Of Proteasome α-Rings Encodes The Design of Allosteric Porphyrin-Based Inhibitors Able To Affect 20S Conformation By Cooperative Binding” (Scientific Reports, 2017):
pIC50: −log10 of the molar value.

Columns and labels:
[1] = test system: α-3ΔN mutant of yeast 20S proteasome; test: UV stopped-flow binding kinetics; conditions: simple bimolecular binding, 37 °C
Excerpt: (§1) The analysis of kinetic progress curves, employing Eq. (S8), allows to obtain the values of k obs at different porphyrin concentrations, which can be exploited, for a classical bimolecular behavior, to obtain the association and dissociation rate constants according to Eq. (1a)1a kobs=kon⋅[Porph]+koff […]
(§2) Therefore, the classical bimolecular behavior, as from Eq. (1a), has been modified accordingly:1b kobs=(kc⋅Pc/Ptot+ko⋅Po/Ptot)⋅[Porph]+koff where k c and k o are the porphyrin binding rate constants to the 20S proteasome in the “closed” and in the “open” conformation, respectively, k off is the dissociation rate constant of the porphyrin, P c and P o are the relative percentage of the two conformations (“closed” and “open”, respectively) as a function of porphyrin concentration, as from Eqs. (S4–S7) (see SI). […]
(§3) Cooperativity for Porphyrin Binding. In the presence of (at least) two states (i.e., “open” and […]
(§4) corresponds to the population of “closed” 20S as a function of porphyrin concentration (with Kc being the porphyrin equilibrium binding constant for this conformation) and Po […]
(§5) Refers to the population of “open” 20S as a function of porphyrin concentration, Ko being the equilibrium porphyrin binding constant and L is the conformationa l equilibrium between the two states in the absence of porphyrins, as from Eq. (S6)

[2] = test system: wild-type yeast 20S proteasome; test: UV stopped-flow binding kinetics; conditions: first cluster, 37 °C
Excerpt: as §1, §2, §3, §4, §5

[3] = test system: wild-type yeast 20S proteasome; test: Steady-state kinetic analysis (Lineweaver-Burk), Suc-LLVY-AMC; type: biochemical
Excerpt: (§6) Proteasome activity assay.
(§7) Latent Core Particles (CP).
(§8) in a 384 multiwell black plate.
(§9) The IC50 is defined as the
(§10) double-reciprocal Lineweaver-Burk plot
(§11) squares. […] The goodness of fit was
(§12) [Etot ] = KI ⋅ 1 + 1 (S3a)
(§13) or an un-competitive inhibition equation:
(§14) [Etot ] = Km ⋅ 1 + KI (S3b)
(§15) or else a mixed inhibition equation: […]
(§16) different affinity for the two forms.
(§17) Cooperativity for Porphyrin Binding.
(§18) be described by Eq. (1b) 2 where Pc

[4] = test system: α-3ΔN yeast mutant 20S; test: as above; type: biochemical; conditions: yeast mutant α-3ΔN (open conformation)
Excerpt: as §6, §7, §8, §9, §10, §11, §12, §13, §14, §15, §16, §17, §18

[5] = biological target: human 20S proteasome T-L activity; conditions: read-out: IC50 T-L; 2 nM 20S, 30 min at 37°C, 100 µM substrate
[6] = biological target: human 20S proteasome ChT-L activity; conditions: read-out: IC50 ChT-L; 2 nM 20S, 30 min at 37°C, 100 µM substrate
[7] = test system: T1, human 20S proteasome; set-up: method as in PMID 22642538; conditions: cited from earlier work
T1 construct: purchased Boston Biochem (Cambridge, MA, USA)

[8] = biological target: human 20S proteasome PGPH-L activity; conditions: read-out: IC50 PGPH-L; 2 nM 20S, 30 min at 37°C, 100 µM substrate

Structure (SMILES)	ko, binding rate constant [1]	L, open/closed conformational equilibrium in the absence of porphyrins [2]	kc, binding rate constant, closed conformation [2]	ko, binding rate constant, open conformation [2]	inhibition mechanism [3]	inhibition mechanism [4]	pIC50 [5]	pIC50 [6]	inhibition mechanism [7]	pIC50 [8]
C[n+]1ccc(-c2ccc(-c3c4nc(c(-c5ccc(-c6cc[n+](C)cc6)cc5)c5ccc([nH]5)c(-c5ccc(-c6cc[n+](C)cc6)cc5)c5nc(c(-c6ccc(-c7cc[n+](C)cc7)cc6)c6ccc3[nH]6)C=C5)C=C4)cc2)cc1 [compound 2, meso-tetrakis(4-N-methylphenylpyridyl)-porphyrin]	2.5e+06 M⁻¹ s⁻¹	4.0 × 10^−6	130 M⁻¹ s⁻¹	7e+06 M⁻¹ s⁻¹	almost pure non-competitive	competitive inhibitor				
C[n+]1ccc(-c2c3nc(c(-c4cc[n+](C)cc4)c4ccc([nH]4)c(-c4cc[n+](C)cc4)c4nc(c(-c5cc[n+](C)cc5)c5ccc2[nH]5)C=C4)C=C3)cc1 [compound 1, meso-tetrakis(4-N-methylpyridyl) porphyrin]							6.19	6.41	competitive and reversible inhibitor	6.85
